Source: ChEMBL document CHEMBL1201862, “PubChem BioAssay data set” (2004)
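Cultured in 96-well plates, cells were exposed to test compound for 48 hours across five concentrations. Here, GI50 denotes the concentration required for 50% inhibition of growth.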 Activity calls are given as the source filed them. Rule as the data show it: active = GI50 up to about 1.1 µM and inactive = higher.

Tests used:
Assay in all cases: inhibition of tumour cell growth, NCI panel, 48 h
OVCAR-3 = system: OVCAR-3
SK-MEL-28 = system: SK-MEL-28
CCRF-CEM = system: CCRF-CEM
NCI-H23 = system: NCI-H23
SW-620 = system: SW-620
Malme-3M = system: Malme-3M
COLO 205 = system: COLO 205
TK-10 = system: TK-10
SF-268 = system: SF-268
LOX IMVI = system: LOX IMVI
HT-29 = system: HT-29
786-0 = system: 786-0
UO-31 = system: UO-31
UACC-257 = system: UACC-257
UACC-62 = system: UACC-62
NCI-H226 = system: NCI-H226
HCT-15 = system: HCT-15
KM12 = system: KM12
HOP-92 = system: HOP-92
CAKI-1 = system: CAKI-1
MDA-MB-435 = system: MDA-MB-435
SN12C = system: SN12C
MOLT-4 = system: MOLT-4
SK-MEL-5 = system: SK-MEL-5
MCF7 = system: MCF7
A549 = system: A549
HL-60 = system: HL-60
U-251 = system: U-251
SF-295 = system: SF-295
PC-3 = system: PC-3
Hs-578T = system: Hs-578T
M14 = system: M14
SK-MEL-2 = system: SK-MEL-2
NCI-H522 = system: NCI-H522
OVCAR-5 = system: OVCAR-5
EKVX = system: EKVX
T47D = system: T47D
NCI/ADR-RES = system: NCI/ADR-RES
MDA-MB-231 = system: MDA-MB-231
RPMI-8226 = system: RPMI-8226
MDA-N = system: MDA-N
HCT-116 = system: HCT-116
BT-549 = system: BT-549
OVCAR-8 = system: OVCAR-8
HOP-62 = system: HOP-62
OVCAR-4 = system: OVCAR-4
DU-145 = system: DU-145
IGROV-1 = system: IGROV-1
NCI-H460 = system: NCI-H460
K562 = system: K562
SNB-19 = system: SNB-19

**Q.** With `CC(C)=NN/C(=N\c1ccc(Cl)cc1)NS(=O)(=O)c1ccc(Oc2cccc(Cl)c2C#N)cc1` as the compound, how does the GI50 (OVCAR-3) read?
**A.** > 100 µM (inactive)

**Q.** And the GI50 (SK-MEL-28)?
**A.** > 100 µM (inactive)

**Q.** And the GI50 (CCRF-CEM)?
**A.** > 100 µM (inactive)

**Q.** What about the GI50 (NCI-H23) of the same compound?
**A.** > 100 µM (inactive)

**Q.** What about the GI50 (SW-620) of the same compound?
**A.** > 100 µM (inactive)

**Q.** What about the GI50 (Malme-3M) of the same compound?
**A.** > 100 µM (inactive)

**Q.** And the GI50 (COLO 205)?
**A.** > 100 µM (inactive)

**Q.** And the GI50 (TK-10)?
**A.** > 100 µM (inactive)

**Q.** What about the GI50 (SF-268) of the same compound?
**A.** > 100 µM (inactive)

**Q.** What about the GI50 (LOX IMVI) of the same compound?
**A.** > 100 µM (inactive)

**Q.** And the GI50 (HT-29)?
**A.** > 100 µM (inactive)

**Q.** What about the GI50 (786-0) of the same compound?
**A.** > 100 µM (inactive)

**Q.** And the GI50 (UO-31)?
**A.** > 100 µM (inactive)

**Q.** What about the GI50 (UACC-257) of the same compound?
**A.** > 100 µM (inactive)

**Q.** And the GI50 (UACC-62)?
**A.** > 100 µM (inactive)

**Q.** And the GI50 (NCI-H226)?
**A.** > 100 µM (inactive)

**Q.** What about the GI50 (HCT-15) of the same compound?
**A.** > 100 µM

**Q.** And the GI50 (KM12)?
**A.** > 100 µM (inactive)

**Q.** What about the GI50 (HOP-92) of the same compound?
**A.** > 100 µM (inactive)

**Q.** And the GI50 (CAKI-1)?
**A.** > 100 µM (inactive)

**Q.** What about the GI50 (MDA-MB-435) of the same compound?
**A.** > 100 µM (inactive)

**Q.** And the GI50 (SN12C)?
**A.** > 100 µM (inactive)

**Q.** What about the GI50 (MOLT-4) of the same compound?
**A.** > 100 µM (inactive)

**Q.** And the GI50 (SK-MEL-5)?
**A.** > 100 µM (inactive)

**Q.** And the GI50 (MCF7)?
**A.** > 100 µM (inactive)

**Q.** What about the GI50 (A549) of the same compound?
**A.** > 100 µM (inactive)

**Q.** What about the GI50 (HL-60) of the same compound?
**A.** > 100 µM (inactive)

**Q.** And the GI50 (U-251)?
**A.** > 100 µM (inactive)

**Q.** What about the GI50 (SF-295) of the same compound?
**A.** > 100 µM (inactive)

**Q.** And the GI50 (PC-3)?
**A.** > 100 µM (inactive)

**Q.** What about the GI50 (Hs-578T) of the same compound?
**A.** > 100 µM (inactive)

**Q.** And the GI50 (M14)?
**A.** > 100 µM (inactive)

**Q.** And the GI50 (SK-MEL-2)?
**A.** > 100 µM (inactive)

**Q.** And the GI50 (NCI-H522)?
**A.** > 100 µM (inactive)

**Q.** What about the GI50 (OVCAR-5) of the same compound?
**A.** > 100 µM (inactive)

**Q.** And the GI50 (EKVX)?
**A.** > 100 µM (inactive)

**Q.** What about the GI50 (T47D) of the same compound?
**A.** > 100 µM (inactive)

**Q.** What about the GI50 (NCI/ADR-RES) of the same compound?
**A.** > 100 µM (inactive)

**Q.** And the GI50 (MDA-MB-231)?
**A.** > 100 µM (inactive)

**Q.** And the GI50 (RPMI-8226)?
**A.** > 100 µM (inactive)

**Q.** What about the GI50 (MDA-N) of the same compound?
**A.** > 100 µM (inactive)

**Q.** What about the GI50 (HCT-116) of the same compound?
**A.** > 100 µM (inactive)

**Q.** What about the GI50 (BT-549) of the same compound?
**A.** > 100 µM (inactive)

**Q.** What about the GI50 (OVCAR-8) of the same compound?
**A.** > 100 µM (inactive)

**Q.** And the GI50 (HOP-62)?
**A.** > 100 µM (inactive)

**Q.** What about the GI50 (OVCAR-4) of the same compound?
**A.** > 100 µM (inactive)

**Q.** And the GI50 (DU-145)?
**A.** > 100 µM (inactive)

**Q.** What about the GI50 (IGROV-1) of the same compound?
**A.** > 100 µM (inactive)

**Q.** What about the GI50 (NCI-H460) of the same compound?
**A.** > 100 µM (inactive)

**Q.** And the GI50 (K562)?
**A.** > 100 µM (inactive)

**Q.** And the GI50 (SNB-19)?
**A.** > 100 µM (inactive)
